# Experimental data from publication PMC9112662, “Scaffold stability and P14′ residue steric hindrance in the differential inhibition of FXIIa by Aedes aegypti trypsin inhibitor versus Infestin-4” (Bioscience Reports, 2022).
# Positions of bridges follow the written chain, without caps; N, C: chain ends. No end group written: not given here.
# Columns and labels:
# [1] = target: T1, FXIIa (Homo sapiens, UniProt P00748); conditions: n = 3; read-out: IC50 values toward FXIIa
# T1 construct: gene F12; human FXIIa (Merck)
# T1 sequence (P00748 373-615): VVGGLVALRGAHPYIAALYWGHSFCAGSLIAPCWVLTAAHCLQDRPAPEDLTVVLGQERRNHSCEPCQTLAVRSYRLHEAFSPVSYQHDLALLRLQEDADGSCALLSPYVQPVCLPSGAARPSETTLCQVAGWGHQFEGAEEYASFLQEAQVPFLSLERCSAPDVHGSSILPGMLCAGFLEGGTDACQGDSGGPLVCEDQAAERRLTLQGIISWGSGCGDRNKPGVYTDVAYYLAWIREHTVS
# Procedure: For IC50 determination, FXIIa was pre-incubated with different concentrations of inhibitors. The generation of p-nitroaniline (pNA) was determined by measuring the absorbance at 405 nm using a absorbance plate reader (Tecan; Männedorf, Switzerland). The reaction mixture consisted of 40 µl FXIIa (10 nM), 40 µl inhibitor, and 40 µl chromogenic substrate (1 mM). All reaction components were prepared in 50 mM Tris pH 7.4 containing 100 mM NaCl.
# For IC50 calculations, log[inhibitor concentration] vs. percentage normalized inhibition was plotted using a non-linear regression curve function, created with Kaleidagraph 4.5.2 (Synergy Software; Reading, PA). All data represent the mean ± SD for triplicate values.
# [2] = target: plasmin; conditions: cited from earlier work
# [3] = target: thrombin; conditions: cited from earlier work
# Description: The Kazal-type inhibitor, Aedes aegypti trypsin inhibitor (AaTI), is a novel trypsin Kazal-type inhibitor from Aedes aegypti, the primary vector of mosquito-borne diseases like dengue. […] AaTI has a similar structure to that of Inf4 [19], and with only a 3-residue difference in the reactive-site loop sequence. The reactive-site loop sequence makes most-if not all-of the direct contacts with the protease and is thought to be the sole factor that govern the inhibitor specificity.
# [4] = target: human Factor XIIa (human) (UniProt P00748)
# [5] = target: FXIIa; conditions: cited from earlier work
Substance,IC50 [1],"IC50 of inhibition of FXIIa activity, chromogenic assay (substrate S-2302) [4]",also measured
AaTI with C1C3 and C3C4 regions of Inf4 (His-tagged) [AaTI_Inf4 C1C3+C3C4],147 ± 42.9 nM,,
AaTI with C1C3 and C5C6 regions of Inf4 (His-tagged) [AaTI_Inf4 C1C3+C5C6],113 ± 16.7 nM,,
AaTI with C1C3 and C5C6 regions of Inf4 and N27G (His-tagged) [AaTI_Inf4 C1C3+C5C6+N27G],11.4 ± 3.1 nM,,
"Aedes aegypti trypsin inhibitor, RSDAERGVCACPRIYMPVCGSNLKTYNNDCLLRCEINSDLGRANNLRKIADQACDNLTDNVNDFIPQEY (His-tagged) [Wild-type AaTI]",> 10000 nM,,Ki [2]: 3.8 nM; Ki [3]: 320 nM
"KEVRNPCACFRNYVPVCGSDGKTYGNPCMLNCAAQTKVPGLKLVHEGRCQRSNVEQF (disulfide 7-32, 9-28, 17-49) [Wild-type Inf4]",,,Ki [5]: 0.128 nM; Ki [2]: 2.1 nM

# More lines, main results first:
IC50 [1],"IC50 of inhibition of FXIIa activity, chromogenic assay (substrate S-2302) [4]",Substance,also measured
4680 ± 3830 nM,,AaTI with C1C3 region of Inf4 (His-tagged) [AaTI_Inf4 C1C3],
610 ± 206 nM,,AaTI with C1C3 region of Inf4 and F10A (His-tagged) [AaTI_Inf4 C1C3+F10A],
58 ± 14.8 nM,,AaTI with C1C3 region of Inf4 and N27G (His-tagged) [AaTI_Inf4 C1C3+N27G],
6.2 ± 0.8 nM,,Inf4 with C6 region replaced with that of AaTI (His-tagged) [Inf4_AaTI C6],
,11.6 nM,Inf4_F10P (domain or fragment),
,8.4 nM,Inf4_N12I (domain or fragment),
,9.9 nM,Inf4_V14M (domain or fragment),
,3.1 nM,Wild-type Infestin-4 (domain or fragment),
